Data reported in patent US20190307818A1, “NOVEL ANTIMICROBIAL COMPOSITIONS AND METHODS OF USE” (priority 2016, published 2019).

Experiments:
[1] = tested on: P. aeruginosa PA14 ΔlasI ΔrhII CRISPR adaptation; experiment: CRISPR adaptation (new spacer integration by PCR); format: cell-based; details: ΔlasI ΔrhII strain; AIs 2 μM 3-O—C12-HSL+10 μM C4-HSL given together; Baicalein 100 μM with AIs; vs DMSO
Method: FIG. 3. QS inhibitors block CRISPR adaptation and disable QS-mediated bacterial immunity. A P. aeruginosa PA14 ΔlasI ΔrhII QS deficient strain was transformed with foreign DNA (e.g., a CRISPR-targeted plasmid). A single colony from the transformation was re-streaked on selective media containing either DMSO (as a control), AIs (2 μM 3-O—C12-HSL+10 μM C4-HSL), or AIs and a QS inhibitor (2 μM 3-O—C12-HSL+10 μM C4-HSL+100 μM Baicalein). Single colonies were tested for integration of new inserted spacers (conferring immunity) against the CRISPR-targeted plasmid. In particular, PCR primers were designed to amplify specific genomic regions into which spacers were inserted. Primers complementary to the region upstream of the CRISPR region and to the second spacer region were designed, and PCR amplification was utilized to test for the presence of the newly inserted spacer (a process referred to as adaptation).
A P. aeruginosa PA14 ΔlasI ΔrhII QS deficient strain was transformed with foreign DNA (e.g., a CRISPR-targeted plasmid such as pCR2SP1, as described above). A single colony from the transformation was re-streaked on selective medium, e.g., LB medium containing 50 μg/ml gentamicin and either DMSO (as a control), AIs (2 μM 3-O—C12-HSL+10 μM C4-HSL), or both AIs and a QS inhibitor (2 μM 3-O—C12-HSL+[…] C4-HSL+100 μM Baicalein QS inhibitor) and incubated at 37° C. O/N. Single colonies were tested for integration of new immunity spacers against the CRISPR-targeted plasmid by PCR using iProof High-Fidelity DNA Polymerase (Bio-Rad) and primers CR2SP check F+R upstream of the CRISPR2 region and in the second spacer. Thus, PCR primers were designed to amplify the genomic region in which the new spacer was present. Primers targeting a sequence upstream of the CRISPR-Cas region and targeting the second spacer region were designed, and PCR amplification was utilized to test for the presence of the new inserted spacer (a portion of the plasmid sequence inserted between the CRISPR locus and spacers). […]

LasR and RhlR = experiment: Receptor specific reporter assays for LasR and RhlR activity (stated in words); format: cell-based, P. aeruginosa
Excerpt: wherein R may be H or OH, and two or more of the R substituents of a given compound are OH; R′ is H or OH; and R″ is H or OH. […] A variety of compounds were obtained and tested for activity (e.g., inhibition of receptor specific reporter assays for LasR and RhlR activity).
A two plasmid E. coli reporter system was constructed, in which LasR or RhlR was expressed under an arabinose inducible promoter (e.g., LasR or RhlR was cloned into a pBAD-A vector and expressed upon addition of arabinose) in the presence of a LasR-dependent or RhlR-dependent promoter fused to luciferase (e.g., cloned into a pCS26 vector). Upon the addition of arabinose and in the presence of AI, LasR or RhlR were expressed, formed a complex with the cognate AI, underwent dimerization, and activated transcription of the reporter construct. All potential inhibitors were tested at 100 μM. The percent activity was reported relative to wild-type (100%).

[2] = tested on: Wild-type P. aeruginosa pyocyanin production; experiment: Pyocyanin virulence factor production; format: cell-based; details: 100 μM overnight, back diluted, grown 18 hrs with inhibitor
Method: FIG. 6. QS inhibitors reduce the level of virulence factor production in P. aeruginosa. The ability of the small molecule inhibitors to reduce virulence factor production by monitoring pyocyanin production was assessed.
The ability of the small molecule QS inhibitors to reduce virulence factor production by monitoring production of pyocyanin as a representative virulence factor was assessed. Wild-type P. aeruginosa was incubated with the indicated molecules at 100 μM overnight, back diluted, and grown for 18 hrs in the presence of QS inhibitor.
By varying the concentration of QS inhibitors, dose dependence curves were generated.

O=c1cc(-c2ccccc2)oc2cc(O)c(O)c(O)c12 [Molecule 46, Baicalein]
CRISPR adaptation (fraction of cells in the colony that adapted) [1]: blocked the positive effects of AIs on CRISPR adaptation
activity (inhibition of receptor specific reporter assays for LasR and RhlR activity) (LasR and RhlR): inhibit both LasR and RhlR
pyocyanin production [2]: inhibit pyocyanin to varying degrees
